According to patent publication EP2338492A1, “Methods and compositions for the treatment of alzheimer” (Universidad del Pais Vasco, priority 2009, dated 2011):
Where two headings read alike, the source gives them in different places.

Key:
[1] = system: neurons from CA1 in organotypic slices; test: Measurement of Ca2+ in organotypic slices (fluo-4); format: cell-based; details: for [Ca2+]i in CA1 neurons of organotypic slices: kainate 1 mM (positive control)
From the text: (§1) Brain was removed and two hemispheres were separated in HBSS. Thalamus and midbrain was removed and each hemisphere sliced with a tissue chopper (McIlwan Tissue Chopper, Campden Instruments Ltd, Lafayette, IN, USA) in order to obtain coronal slices of 400 µm of thickness. Entorhinal cortex, in connection with hippocampus, were isolated under a dissection microscope, 2 slices plated on each Millicell CM culture inserts (Millipore Ibérica, Madrid, Spain) and maintained in Neurobasal medium supplemented with 0.5% B27, 25% horse serum, 25% HBSS and […] gentamycin at 37°C. Experiments were performed at 7-10 days in vitro.
Ca^2+ levels in hippocampus were monitored by fluorescence microscopy using the Ca^2+ indicator fluo-4 (Molecular Probes, Invitrogen, Barcelona, Spain). Slices were incubated with fluo-4-AM (5 µM and 0.01 % of pluronic acid) for 45 min at 37 °C. Experiments were performed in a chamber continuously perfused with incubation buffer. Drugs were perfused by a micromanifold with a quartz/polyimide tube of 200 µm ID, attached to a micromanipulator in order to perfuse the drugs directly to the cells. The perfusion chamber was mounted on the stage of a Leica DMLFSA up-right microscope equipped with a 150 W xenon lamp Polychrome V (T.I.L.L. Photonics, Martinsried, Germany) and a HCX Apo 40 x water immersion objective (Leica). Cells were visualized with a CCD camera (EM CCD 9100; Hamamatsu Photonics Iberica, Barcelona, Spain).

neurons = test: Measurement of mitochondrial Ca2+ (Rhod-2 AM); format: cell-based, Sprague-Dawley rat; details: for effect on Aβ-induced [Ca2+]mit rise: Aβ 5 µM together with NMDA receptor antagonist
From the text: (§2) Primary neuron cultures were obtained from the cortical lobes of E18 Sprague-Dawley rat embryos according to previously described procedures (Gottlieb M. et al. 2006. Neurobiol. Dis. 23 374-386.) Cells were resuspended in B27 Neurobasal medium plus 10% FBS (Sigma; St Louis, MO, USA) and then seeded onto poly-1-ornithine-coated glass coverslips at 1x10^5 cells per coverslip (12 mm in diameter) and 48-well plates at 1.5 x 10^5 per well. One day later, the medium was replaced by serum-free-, B27-supplemented Neurobasal medium. The cultures were essentially free of astrocytes and microglia; they were maintained at 37°C and 5% CO2. Cultures were used 8-10 days after plating.
Rhod-2 AM (Molecular Probes, Invitrogen, Barcelona, Spain) was used to measure mitochondrial Ca^2+ according to the previous procedure with modifications (G. Hajnóczky, L.D. et al. 1995. Cell 82 415-424) Rhod2-AM has a net positive charge, which facilitates its sequestration into mitochondria due to membrane potential-driven uptake. Cells were loaded with 2 µM rhod2-AM for 6 hours. The residual cytosolic fraction of the dye was eliminated when the cells were kept in culture for an additional 18h after loading, whereas the mitochondrial dye fluorescence was maintained. Fluorescence images of rhod-2 were acquired using 550 nm excitation and 590 nm emission. The fluorescence of rhod-2 was not calibrated in terms of [Ca^2+]mit since it is not a ratiometric dye.

Cortical neurons [2] = test: Measurement of intracellular reactive oxygen species (CM-H2DCFDA); format: cell-based, Sprague-Dawley rat; details: 2 hours
From the text: as §2
Neurons were exposed to Aβ oligomers alone or with GluR antagonists as described. Cells were loaded with CM-H2DCFDA at 30 µM to assay the ROS levels. Calcein-AM (1 µM; Molecular Probes, Invitrogen, Barcelona, Spain) was used to quantify the number of cells within the reading field. Fluorescence was measured using a Synergy-HT fluorimeter (Bio-Tek Instruments Incl, Beverly, MA, USA; excitation at 485 nm, emission at 527 nm). All experiments (n≥3) were performed at least in quadruplicate and plotted as means ± SEM.

AMPA receptors = test: Whole-cell patch-clamp recording of Aβ-induced currents with Mg2+, no glycine, with or without cyclothiazide; format: cell-based, Sprague-Dawley rat; details: Aβ 1 µM + CTZ 100 µM; CNQX 30 µM; n=6
From the text: as §2
Whole-cell recordings were performed at room temperature using the EPC-7 patch-clamp amplifier (HEKA Elektronik, Lambrecht, Germany). Currents were recorded at a holding membrane potential of -70 mV. Extracellular bath solution with a pH of 7.3 contained the following (in mM): 140 NaCl, 5 KCl, 2.5 CaCl2, 1 MgCl2, 10 HEPES and 10 mM glucose. Patch-clamp pipettes (3-5 MΩ) were filled with internal solution at a pH of 7.3 containing the following (in mM): 140 K-gluconate, 1 CaCl2, 2 MgCl2, 10 HEPES, 10 EGTA, 2 Mg-ATP, 0.2 Na-GTP.
We then measured the effects of antagonists of NMDA or AMPA receptor on [Ca^2+]¡ in neurons exposed to Aβ plus CTZ (5 µM and 100 µM, respectively; Fig 2B).

Cortical neurons [3] = test: Analysis of mitochondrial membrane potential (JC-1); format: cell-based, Sprague-Dawley rat; details: Aβ 5 µM, 2 hours, in conjunction with GluR antagonist
From the text: as §2
Briefly, after drug treatment, cells were loaded with 3 µM JC-1 for 15 min at 37°C and were washed with HBSS without phenol red by two times to eliminate the excess of dye. In the cytosol the monomeric form of this dye fluoresces green (excitation at 485 nm, emission at 527 nm), whereas within the mitochondrial matrix highly concentrated JC-1 forms aggregates that fluoresce red (excitation at 485 nm, emission at 590 nm). Both JC-1 monomers and aggregates were detectable using a Synergy-HT fluorimeter (Bio-Tek Instruments Incl, Beverly, MA, USA) and the changes in mitochondrial potential were calculated as the red/green ratio in each condition. All experiments (n≥3) were performed at least in triplicate and plotted as meant SEM.

[4] = system: entorhinal cortex-hippocampus organotypic cultures; test: Cell death in organotypic cultures by propidium iodide uptake; format: cell-based; details: Aβ oligomers 100 nM, 4 days, co-incubation with MK801 10 µM or CNQX 30 µM
From the text: as §1
Antagonists were added to cultures 30 min before the Aβ. Cell death in organotypic cultures was evaluated by cellular uptake of propidium iodide (PI). Slices were stained by adding 10 µM PI into the culture for 2 h at 37°C and washed with PBS by two times for 10 min. Slices were fixed with 4% PFA in PBS for 40 min at room temperature. Afterwards, the slices were excited with 510―560 nm light and the emitted fluorescence acquired at 610 nm using a rhodamine filter on an inverted fluorescence microscope (Cell Observer Z1, Zeiss). PI fluorescence images were captured with a Plan NeoFluar 2.5 x objective (Zeiss), using an EM CCD camera (Hamamatsu, C9100-13), controlled by Axio Vision program (Zeiss). Images were analyzed with the ImageJ analysis program (NIH, MD, USA) and neuronal cell death was expressed as the percentage of the mean gray value of each treatment vs. control.

NMDA receptor = format: cell-based, Sprague-Dawley rat
Cortical neurons [5] = test: Cell viability and toxicity assay (LDH release); format: cell-based, Sprague-Dawley rat
From the text: as §2
Antagonists and inhibitors were added to the cultures 30 min before the Aβ. Twenty four hours after drug application, cellular damage was estimated by measuring the level of lactate dehydrogenase released (LDH; Cytotox 96®, Promega, Madison, WI) from damaged cells into the culture media. Data were normalized to the activity of LDH released from vehicle-treated cells (100%) and calculated as a percentage of the control. Results were expressed as the means ± SEM of at least three independent experiments performed in triplicates.

[6] = system: cultured cortical neurons; test: Ca2+ imaging in the cytosol (fura-2 AM); format: cell-based, Sprague-Dawley rat; details: for effect on Aβ-induced increase in [Ca2+]i: Aβ 5 µM, coapplication, NMDA antagonists n=70, voltage-gated Ca2+ channel inhibitors n=66
From the text: as §2
[Ca^2+]¡ was determined according to the method described previously (G. Grynkiewicz, et al. 1985. J. Biol. Chem. 260:3440-3450). Neurons were loaded with fura-2 AM (5 µM; Molecular Probes, Invitrogen, Barcelona, Spain) in culture medium for 30 min at 37°C. Cells were washed in HBSS containing 20 mM HEPES, pH 7.4, 10 mM glucose, and 2 mM CaCl2 (incubation buffer) for 10 min at room temperature. Experiments were performed in a coverslip chamber continuously perfused with incubation buffer at 4 ml/min. The perfusion chamber was mounted on the stage of a inverted epifluorescence microscope (Zeiss Axiovert 35; Oberkochen, Germany) equipped with a 150 W xenon lamp Polychrome IV (T.I.L.L. Photonics, Martinsried, Germany) and a Plan Neofluar 40 x oil immersion objective (Zeiss). Cells were visualized with a high-resolution digital black/white CCD camera (ORCA C4742-80-12 AG; Hamamatsu Photonics Iberica). […] At the end of the assay, in situ calibration was performed with the successive addition of […] and 2 M Tris/50 mM EGTA, pH 8.5. Data were analyzed with Excel (Microsoft, Seattle, WA, USA) and Prism (GraphPad Software, San Diego, CA, USA) software.

[7] = Aβ 5 µM, in conjunction with GluR antagonist
[8] = Aβ 5 µM, 24 h, AP5 100 µM, MK801 50 µM, memantine 50 µM, CNQX 30 µM, ZVAD-F 50 µM, DEVD 100 µM, DPQ 30 µM, added 30 min before Aβ

Aβ oligomers: soluble Aβ1-42 oligomers prepared from Aβ1-42 (ABX) in Hams F-12 at 4°C for 24 h
[Ca2+]i in CA1 neurons of organotypic slices ([1]; Aβ 20 µM in the pipette): increased
[Ca2+]mit levels with respect to the control assay (incubation buffer) (neurons; Aβ 5 µM): increased
ROS levels with respect to control (100%, non-treated cells) (Cortical neurons [2]; Aβ 5 µM alone): 124 ± 7.8%

C=C(C)[C@H]1CN[C@H](C(=O)O)[C@H]1CC(=O)O [Kainate]
[Ca2+]i in CA1 neurons of organotypic slices ([1]; Aβ 20 µM in the pipette): increases

6-Cyano-7-nitroquinoxaline-2,3-dione [CNQX]
effect on current activated by Aβ with CTZ (AMPA receptors): blocked
mitochondrial potential with respect to control (100%, non-treated cells) (Cortical neurons [3]): 86 ± 3%
effect on Aβ-induced [Ca2+]i response in organotypic slices ([1]; Aβ 20 µM in the pipette, MK801 50 µM (n=9), CNQX 30 µM (n=43), both (n=50)): greatly reduced
PI uptake, fold as compared to control slices treated with antagonist alone ([4]; entorhinal cortex): 0.73 ± .01 fold
PI uptake, fold as compared to control slices treated with antagonist alone ([4]; hippocampus): 1.3 ± 0.4 fold
Aβ-produced inward current, Aβ + CNQX vs 100 % Aβ alone (NMDA receptor): 98.3 ± 6.8%
effect on Aβ toxicity (Aβ-induced cell death) (Cortical neurons [5]): greatly attenuated
ROS levels with respect to control (100%, non-treated cells) (Cortical neurons [2]; [7]): 106 ± 6.3%
[Ca2+]i increase, % of control [6]: 50 ± 4 % of control

N#CC(C#N)=NNc1ccc(OC(F)(F)F)cc1 [FCCP]
rhod-2 fluorescence (mitochondrial Ca2+) (neurons; FCCP 25 µM, internal control): rapid and transitory reduction of rhod-2 fluorescence

O=C1NCCc2c(OCCCCN3CCCCC3)cccc21 [DPQ]
effect on Aβ toxicity (Aβ-induced cell death) (Cortical neurons [5]; [8]): reduced

C[C@]12N[C@H](Cc3ccccc31)c1ccccc12 [MK801]
mitochondrial potential with respect to control (100%, non-treated cells) (Cortical neurons [3]): 85 ± 3%
effect on Aβ-induced [Ca2+]i response in organotypic slices [1]: greatly reduced
effect on Aβ-induced [Ca2+]mit rise (neurons): reduced
PI uptake, fold as compared to control slices treated with antagonist alone ([4]; entorhinal cortex): 1.2 ± 0.4 fold
PI uptake, fold as compared to control slices treated with antagonist alone ([4]; hippocampus): 0.9 ± 0.2 fold
effect on Aβ toxicity (Aβ-induced cell death) (Cortical neurons [5]): greatly attenuated
ROS levels with respect to control (100%, non-treated cells) (Cortical neurons [2]; [7]): 104 ± 3.4%
effect on Aβ-induced increase in [Ca2+]i [6]: nearly abolished

N[C@H](CCCP(=O)(O)O)C(=O)O [AP5, D-(-)-2-Amino-5-phosphonopentanoic acid]
mitochondrial potential with respect to control (100%, non-treated cells) (Cortical neurons [3]): 90 ± 2%
effect on Aβ-induced [Ca2+]mit rise (neurons): reduced
effect on Aβ oligomer-induced inward current (NMDA receptor): reduced the peak of the currents
effect on Aβ toxicity (Aβ-induced cell death) (Cortical neurons [5]; [8]): greatly attenuated
ROS levels with respect to control (100%, non-treated cells) (Cortical neurons [2]; [7]): 102 ± 11%
[Ca2+]i increase, % of control ([6]; Aβ 5 µM plus CTZ 100 µM, CNQX 30 µM (n=17), AP5 100 µM (n=17), both (n=18)): 45 ± 2 % of control
effect on Aβ-induced increase in [Ca2+]i [6]: nearly abolished
